Test [1] concerns the target PRMT5/MEP50 (Homo sapiens (Human), UniProt O14744). The test can be described thus: PRMT5 Biochemical Assay (PRMT5/MEP50 enzyme assay on peptide substrate, 3H-SAM Flashplate). The following applies: PRMT5 biochemical assay. In a few lines: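 Radiometric methylation of a biotin-tagged H4(1-15) peptide by human PRMT5/MEP50 from baculovirus/Sf9, with ³H-SAM incorporation read on streptavidin Flashplates. Buffer: Bicine pH 7.6, TCEP, BSG, Tween20; compound preincubated 30 min at 25 °C; stopped with 600 µM final unlabeled SAM. DMSO and SAH controls; IC50 from fitted % inhibition.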

Test [2] relates to Z-138 cell line. The test can be described thus: Z-138 Proliferation Assay (Cell Titer Glo, 5 days). The test is classed as cell-based. Conditions: Homo sapiens, 120 h; Z-138 cells, 5 days, Cell Titer Glo; read-out: Proliferation EC50. An outline of the steps: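 Z-138 cells exposed 5 days at 37 °C, 5% CO2 to nine-point 3-fold dilutions (final top 20 μM, 0.2% DMSO), in triplicate. Viability read as ATP by CellTiter-Glo luminescence; IC50 from 4-parameter fit of normalized dose-response curves.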

Test [3] concerns symmetric di-methyl arginine in Z-138 cells. The test can be described thus: Z-138 Methylation Assay (In Cell Western for symmetric di-methyl arginine and DNA content). The test is classed as cell-based. Conditions: Homo sapiens, In Cell Western methylation, read-out: ICW EC50. An outline of the steps:
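Z-138 cells (50,000 cells/mL) treated with compound 96 h at 37 °C, then fixed and stained for symmetric di-methyl arginine (800 nm) with DRAQ5 DNA counterstain (700 nm) on Licor Odyssey.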

Molecules are shown by their SMILES.

Sequence of PRMT5/MEP50 (O14744 other isoform, or with tags, fused parts or gaps): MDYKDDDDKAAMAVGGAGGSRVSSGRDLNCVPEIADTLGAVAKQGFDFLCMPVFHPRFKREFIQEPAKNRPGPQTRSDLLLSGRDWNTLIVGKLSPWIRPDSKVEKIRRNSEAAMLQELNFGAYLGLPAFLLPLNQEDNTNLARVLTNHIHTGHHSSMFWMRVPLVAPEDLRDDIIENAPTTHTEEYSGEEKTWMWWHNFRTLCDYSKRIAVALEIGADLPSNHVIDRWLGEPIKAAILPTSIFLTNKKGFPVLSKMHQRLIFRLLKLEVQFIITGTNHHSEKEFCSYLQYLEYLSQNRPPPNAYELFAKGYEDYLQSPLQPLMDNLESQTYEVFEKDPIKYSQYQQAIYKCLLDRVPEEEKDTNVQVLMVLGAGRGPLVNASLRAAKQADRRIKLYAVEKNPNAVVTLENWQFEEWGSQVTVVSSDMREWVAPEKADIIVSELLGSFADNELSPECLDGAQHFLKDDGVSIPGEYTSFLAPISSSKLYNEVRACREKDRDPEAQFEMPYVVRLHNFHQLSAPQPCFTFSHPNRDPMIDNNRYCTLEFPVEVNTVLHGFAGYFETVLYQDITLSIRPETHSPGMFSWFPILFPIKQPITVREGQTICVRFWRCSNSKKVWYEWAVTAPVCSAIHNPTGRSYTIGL
Sequence of PRMT5/MEP50 (Q9BQA1 other isoform, or with tags, fused parts or gaps partner): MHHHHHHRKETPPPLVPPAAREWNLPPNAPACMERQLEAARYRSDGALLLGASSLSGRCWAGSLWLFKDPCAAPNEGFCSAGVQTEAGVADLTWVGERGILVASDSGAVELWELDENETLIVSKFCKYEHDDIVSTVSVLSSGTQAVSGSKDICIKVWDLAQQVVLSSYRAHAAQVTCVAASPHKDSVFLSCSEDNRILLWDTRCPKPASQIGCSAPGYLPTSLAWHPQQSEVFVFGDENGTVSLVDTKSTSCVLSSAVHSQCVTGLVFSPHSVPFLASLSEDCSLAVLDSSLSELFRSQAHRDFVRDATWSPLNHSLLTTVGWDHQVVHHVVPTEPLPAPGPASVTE

For `CN1CCC(Nc2cc(C(=O)NCC(C)(O)CN3CCc4ccccc4C3)ncn2)CC1` (stereo not drawn) [Compound 648], the IC50 (as a rule, the concentration needed to halve the response being measured) in test [1] lay in the range of 1000 to 10000 nM. The figures for the EC50 in test [2] and in test [3] were over 5000 nM and over 1000 nM, respectively.

Take `CC(=O)N1CCC(Nc2cc(C(=O)NCC(C)(O)CN3CCc4ccccc4C3)ncn2)CC1` (stereo not drawn) [Compound 649]: in test [1], the IC50 was under 100 nM. Besides, the EC50 in test [2] is 1000 to 10000 nM; in test [3], under 100 nM.

For `CC(O)(CNC(=O)c1cc(NC2CCN(C(=O)C3CC3)CC2)ncn1)CN1CCc2ccccc2C1` (stereo not drawn) [Compound 650], the half-inhibitory concentration (IC50) in test [1] was under 100 nM. Moreover, the figures for the EC50 in test [2] and in test [3] were 1000 to 10000 nM and under 100 nM, respectively.

Take `O=C(NCCCN1CCc2ccccc2C1)c1cc(NC2COC2)ncn1` [Compound 651]: the IC50 in test [1] fell in the range of 101 to 1000 nM. The EC50 in test [2] is over 5000 nM; in test [3], over 1000 nM.

On to `CC(=O)N1CC(Nc2cc(C(=O)NCCCN3CCc4ccccc4C3)ncn2)C1` [Compound 652], for which, in test [1], the 50% inhibitory concentration (IC50) was under 100 nM. Further, the EC50 was over 5000 nM in test [2] and 101 to 1000 nM in test [3].

As to `CC(=O)N1CCC(Nc2cc(C(=O)NCCCN3CCc4ccccc4C3)ncn2)CC1` [Compound 653], the concentration for half-maximal inhibition (IC50) in test [1] was under 100 nM. The EC50 was 1000 to 10000 nM in test [2] and under 100 nM in test [3].

Take `CC(=O)N1CCC(Nc2cc(C(=O)NCCCN3CCc4ccccc4C3)ccn2)CC1` [Compound 654]: the IC50 in test [1] is under 100 nM. In addition, the EC50 in test [2] was 1000 to 10000 nM; in test [3], under 100 nM.

As for `CC(=O)N1CC(Nc2cc(C(=O)NCC(F)CN3CCc4ccccc4C3)ncn2)C1` (stereo not drawn) [Compound 655], in test [1], the IC50 was in the range of 101 to 1000 nM. Besides, the EC50 was over 5000 nM in test [2] and 101 to 1000 nM in test [3].

In the case of `CC(=O)N1CCC(Nc2cc(C(=O)NCC(F)CN3CCc4ccccc4C3)ncn2)CC1` (stereo not drawn) [Compound 656], the IC50 in test [1] was 101 to 1000 nM. Further, the results for the EC50 in test [2] and in test [3] were over 5000 nM and 101 to 1000 nM, respectively.

Consider `CC(CNC(=O)c1cc(NC2COC2)ncn1)CN1CCc2ccccc2C1` (stereo not drawn) [Compound 657], for which the 50% inhibitory concentration (IC50) in test [1] was under 100 nM. The values for the EC50 in test [2] and in test [3] were over 5000 nM and under 100 nM, respectively.

Turning to `CC(=O)N1CCC(Nc2cc(C(=O)NCC(C)CN3CCc4ccccc4C3)ncn2)CC1` (stereo not drawn) [Compound 658], the IC50 in test [1] is under 100 nM. For the same molecule, the figures for the EC50 in test [2] and in test [3] were 101 to 1000 nM and under 100 nM, respectively.

In the case of `CC(=O)N1CC(Nc2cc(C(=O)NCC(C)CN3CCc4ccccc4C3)ncn2)C1` (stereo not drawn) [Compound 659], the IC50 in test [1] was under 100 nM. Also, the EC50 in test [2] was 101 to 1000 nM; in test [3] it was under 100 nM.

On to `CC(=O)N1CCC(Nc2cc(C(=O)NCC(C)CN3CCc4ccccc4C3)ccn2)CC1` (stereo not drawn) [Compound 660], for which, in test [1], the IC50 was under 100 nM. Further, the figures for the EC50 in test [2] and in test [3] were 101 to 1000 nM and under 100 nM, respectively.

For the molecule `CN[C@H]1CC[C@H](Nc2cc(C(=O)NC[C@H](O)CN3CCc4ccccc4C3)ncn2)CC1` [Compound 661], the concentration for half-maximal inhibition (IC50) in test [1] is under 100 nM. In addition, the EC50 in test [2] was 101 to 1000 nM; in test [3], under 100 nM.

Take `CCN(C)[C@H]1CC[C@H](Nc2cc(C(=O)NC[C@H](O)CN3CCc4ccccc4C3)ncn2)CC1` [Compound 662]: the IC50 in test [1] is under 100 nM. The EC50 was 101 to 1000 nM in test [2] and under 100 nM in test [3].

`CC(=O)N1CC(Nc2cc(C(=O)NC[C@H](O)CN3CCc4cccc(C)c4C3)ncn2)C1` [Compound 663]: the concentration for half-maximal inhibition (IC50) in test [1] is under 100 nM. Further, the EC50 was 101 to 1000 nM in test [2] and under 100 nM in test [3].

For `CC(=O)N1CCC(Nc2cc(C(=O)NC[C@H](O)CN3CCc4cccc(C)c4C3)ncn2)CC1` [Compound 664], the IC50 in test [1] is under 100 nM. Besides, the EC50 is 101 to 1000 nM in test [2] and under 100 nM in test [3].

Regarding `CC(=O)N1CCC(Nc2cc(C(=O)NC[C@H](O)CN3CCc4cccc(C)c4C3)ccn2)CC1` [Compound 665], the 50% inhibitory concentration (IC50) in test [1] was under 100 nM. Further, the EC50 in test [2] and in test [3] was under 100 nM each time.

As for `Cc1ccc2c(c1)CN(C[C@@H](O)CNC(=O)c1cc(NC3COC3)ncn1)CC2` [Compound 666], the IC50 in test [1] fell in the range of 101 to 1000 nM. For the same molecule, the EC50 in test [2] is over 5000 nM; in test [3], 101 to 1000 nM.

Source of the values: patent publication US10307413B2, “Tetrahydro- and dihydro-isoquinoline PRMT5 inhibitors and uses thereof” (Epizyme, Inc., priority 2013, dated 2019).
